# Earlier results, collected in patent publication US6858221B2, “Intravascular delivery of mycophenolic acid” (Avantec Vascular Corporation, priority 2000, dated 2005).
# Tested on: Human SMC
# Conditions: dose range 0.1 nM-1 μM, Mohacsi et al. 1997
smiles,measurement,value
"CO[C@H]1C[C@@H]2CC[C@@H](C)[C@@](O)(O2)C(=O)C(=O)N2CCCC[C@H]2C(=O)O[C@H]([C@H](C)C[C@@H]2CC[C@@H](O)[C@H](OC)C2)CC(=O)[C@H](C)/C=C(\C)[C@@H](O)[C@@H](OC)C(=O)[C@H](C)C[C@H](C)/C=C/C=C/C=C/1C [Rapamycin, rapamycin]",IC50,1 nM
